# Assay results reported in patent publication US5914327A, “Biaryl-pyridoquinazolinone derivatives as anti-cancer agents” (American Cyanamid Company, priority 1997, dated 1999).
# Counter-ions that a name gives are not always drawn.
# What was measured:
# LS174T = experiment: Human Tumor Xenograft Standard Pharmacological Test Procedure; assay type: in vivo, human tumor in athymic nude mice; conditions: days 1,5,9
# Excerpt: Human Tumor Xenograft Standard Pharmacological Test Procedure
# P388 [1] = experiment: Murine P388 Leukemia; assay type: in vivo, murine (CD2F1 mice); conditions: days 1,5,9
# Procedure: (§1) Murine Tumor Standard Pharmacological Test Procedures
# CD2F1 mice are injected i.p. with 1×10^6 tumor cells on Day 0 of the test. Drugs are administered i.p. on Days 1, 5, and 9 after the tumor implantation.
# COLON 26 = experiment: Murine Colon 26 Advanced, Metastatic Tumor; assay type: in vivo, murine (CD2F1 mice)
# Procedure: as §1
# Murine Colon 26 Advanced, Metastatic Tumor
# CD2F1 mice are injected i.p. with 5×10^5 tumor cells on Day 0 of the test. […]
# A2780 DDP = experiment: In vitro cytotoxicity, two cell line test procedure (A2780 DDP); assay type: cell-based; conditions: Homo sapiens, 48 hours exposure, sulforhodamine B, cisplatin-resistant
# Procedure: (§2) Description of the two cell line test procedure
# (§3) A2780 S and A2780 DDP cells [Biochemical and Molecular Properties of Cisplatin-resistant A2780 Cells Grown in Folinic Acid; Y. Lu, J. Hnan, and K. Scanlon, J. Biol. Chem., 263, 4891-4894, 1988.] are grown in RPMI 1640 medium containing 5% fetal calf serum, 50 μg/ml streptomycin, 50 units/ml penicillin, 50 μg/ml gentamycin, 0.03% L-glutamine, 1 nM estradiol, 1 nM testosterone, 5 μg/mlinsulin, 5 μg/ml transferrin, and 5 ng/ml selenous acid, at 37° C., in a humidified atmosphere, containing 5% CO2. Experiments are done in the same media.
# (§4) Cells are plated at the concentration of 5×10^4 /ml on Day 0 of the experiment. On Day one control cells are fixed with trichloroacetic acid and 5 ten fold dilutions of tested compounds are added, in duplicates, to the remaining cells. On Day 3 (48 hours exposure to drugs) all cells are fixed with trichloroacetic acid, stained with 0.4% sulforhodamine B, and absorbency is read at 520 nm. The IC50s (concentration causing 50% inhibition) are determined for each drug.
# A2780 S = experiment: In vitro cytotoxicity, two cell line test procedure (A2780 S); assay type: cell-based; conditions: Homo sapiens, A2780S; 48 hours exposure, sulforhodamine B
# Procedure: as §2, §3, §4
# P388 [2] = conditions: Denny et al., Mutation Research 232: 233 (1990); cited from earlier work
# [3] = Denny et al., Mutation Research 232: 233 (1990); cited from earlier work
# P388 [4] = experiment: Murine P388 Leukemia; assay type: in vivo, murine (CD2F1 mice); conditions: 200 mg/kg i.p., days 1,5
Structure (SMILES),IC50 (A2780 DDP),IC50 (A2780 S),other results
"CC[C@]1(O)C[C@H]2CN(CCc3c([nH]c4ccccc34)[C@@](C(=O)OC)(c3cc4c(cc3OC)N(C=O)[C@H]3[C@@](O)(C(=O)OC)[C@H](OC(C)=O)[C@]5(CC)C=CCN6CC[C@]43[C@@H]65)C2)C1 [Vincristine, reference compound]",,,% T/C (relative tumor growth treated/placebo) (LS174T; 1.0 mg/kg i.p.): 52 % T/C; % ILS (P388 [1]; 0.8 mg/kg i.p.): +114 % ILS
"COc1cccc2c1C(=O)c1c(O)c3c(c(O)c1C2=O)C[C@@](O)(C(=O)CO)C[C@@H]3O[C@H]1C[C@H](N)[C@H](O)[C@H](C)O1 [Adriamycin, reference compound]",,,"% ILS (COLON 26; 4 mg/kg i.p., days 5,9,14): +71 % ILS"
"CN(C)CCNC(=O)c1cccn2c(=O)c3cc(-c4cccc5ccccc45)ccc3nc12 [Example 17, 11H-pyrido[2,1-b)quinazoline-6-carboxamide, N-[2-(dimethylamino)ethyl]-2-(1-naphthalenyl)-11-oxo]",4.7 µg/mL,4.6 µg/mL,
"CN(C)CCNC(=O)c1cccn2c(=O)c3ccc(-c4cccc(N)c4)cc3nc12 [Example 35, 11H-Pyrido[2,1-b]quinazoline-6-carboxamide, 3-(3-aminophenyl)-N-[2-(dimethylamino)ethyl]-11-oxo]",0.4 µg/mL,0.5 µg/mL,
"COc1ccc(-c2ccc3nc4c(C(=O)NCCN(C)C)cccn4c(=O)c3c2)cc1 [Example 19, 11H-Pyrido[2,1-b]quinazoline-6-carboxamide, N-[2-(dimethylamino)ethyl]-2-(4-methoxyphenyl)-11-oxo]",3.4 µg/mL,4.3 µg/mL,% ILS (P388 [1]; 50 mg/kg i.p.): -9 % ILS; % ILS (P388 [1]; 100 mg/kg i.p.): +4 % ILS; % ILS (P388 [1]; 200 mg/kg i.p.): +6 % ILS
CN(C)CCNC(=O)c1cccn2c(=O)c3cc(-c4cc5ccccc5c5ccccc45)ccc3nc12 [Example 16],5.3 µg/mL,4.1 µg/mL,
"CN(C)CCNC(=O)c1cccn2c(=O)c3ccccc3nc12 [I, N-[2-(dimethylamino)ethyl]-11-oxo-11H-pyrido[2,1-b]quinalzoline-6-carboxamide]",,,activity in P388 mouse model (P388 [2]): inactive in a P388 mouse model; in vitro activity [3]: showed some in vitro activity
CN(C)CCNC(=O)c1cccn2c(=O)c3cc(-c4cccc(N(C)C)c4)ccc3nc12 [Example 21],0.5 µg/mL,0.2 µg/mL,
"CN(C)CCNC(=O)c1cccn2c(=O)c3cc(-c4cccc(-c5ccccc5)c4)ccc3nc12 [Example 15, 11H-Pyrido[2,1-b]quinazoline-6-carboxamide, 2-[1,1'-biphenyl]-3-yl-N-[2-(dimethylamino)ethyl]-11-oxo]",0.8 µg/mL,0.6 µg/mL,% ILS (P388 [4]): -40 % ILS; % ILS (P388 [1]; 50 mg/kg i.p.): +8 % ILS; % ILS (P388 [1]; 100 mg/kg i.p.): +2 % ILS
CN(C)CCNC(=O)c1cccn2c(=O)c3cc(-c4cccc(C(F)(F)F)c4)ccc3nc12 [Example 18],4.2 µg/mL,1.1 µg/mL,
"CN(C)CCNC(=O)c1cccn2c(=O)c3cc(-c4cc(C(F)(F)F)cc(C(F)(F)F)c4)ccc3nc12 [Example 20, 11H-Pyrido[2,1-b]quinazoline-6-carboxamide, 2-[3,5-bis(trifluoromethyl)phenyl]-N-[2-(dimethylamino)ethyl]-11-oxo]",3 µg/mL,3.8 µg/mL,
"CN(C)CCNC(=O)c1cccn2c(=O)c3cc(-c4cccc(N)c4)ccc3nc12 [Example 13, 11H-Pyrido[2,1-b]quinazoline-6-carboxamide, 2-(3-aminophenyl)-N-[2-(dimethylamino)ethyl]-11-oxo]",3.7 µg/mL,0.4 µg/mL,"% T/C (relative tumor growth treated/placebo) (LS174T; 250 mg/kg i.p.): 59 % T/C; % T/C (relative tumor growth treated/placebo) (LS174T; 300 mg/kg i.p.): 44 % T/C; % ILS (COLON 26; 100 mg/kg i.p., days 5,9,13): +18 % ILS; % ILS (COLON 26; 200 mg/kg i.p., days 5,9,13): +24 % ILS; % ILS (COLON 26; 250 mg/kg i.p., days 5,9,13): +35 % ILS; % ILS (P388 [1]; 25 mg/kg i.p.): +4 % ILS; % ILS (P388 [1]; 50 mg/kg i.p.): +2 % ILS; % ILS (P388 [1]; 100 mg/kg i.p.): +20 % ILS; % ILS (P388 [1]; 200 mg/kg i.p.): +57 % ILS"
"Nc1cccc(-c2ccc3nc4c(C(=O)NCCNCCO)cccn4c(=O)c3c2)c1 [Example 24, 11H-Pyrido [2,1-b]quinazoline-6-carboxamide, 2-(3-aminophenyl)-N-[2-[(2-hydroxyethyl)amino]ethyl]-11-oxo-trihydrochloride]",2.1 µg/mL,0.6 µg/mL,"% ILS (COLON 26; 200 mg/kg i.p., days 5,9,13): +24 % ILS; % ILS (COLON 26; 300 mg/kg i.p., days 5,9,13): -24 % ILS; % ILS (P388 [1]; 25 mg/kg i.p.): +12 % ILS; % ILS (P388 [1]; 50 mg/kg i.p.): +4 % ILS; % ILS (P388 [1]; 100 mg/kg i.p.): +4 % ILS; % ILS (P388 [1]; 200 mg/kg i.p.): 0 % ILS"
"CN(C)CCNC(=O)c1cccn2c(=O)c3cc(-c4ccccc4-c4ccccc4)ccc3nc12 [Example 14, 11H-Pyrido[2,1-b]quinazoline-6-carboxamide, 2-[1,1'biphenyl]-2-yl-N-[2-(dimethylamino)ethyl]-11-oxo]",4.8 µg/mL,4.4 µg/mL,
"Nc1ccccc1-c1ccc2nc3c(C(=O)NCCNCCO)cccn3c(=O)c2c1 [Example 30, 11H-Pyrido[2,1-b]quinazoline-6-carboxamide, 2-(2-aminophenyl)-N-[2-[(2-hydroxyethyl)amino]ethyl]-11-oxo-trihydrochloride]",6.9 µg/mL,4.8 µg/mL,
"O=C(NCCNCCO)c1cccn2c(=O)c3cc(-c4ccccc4)ccc3nc12 [Example 26, 11H-pyrido[2,1-b]quinazoline-6-carboxamide, N-[2-[(2-hydroxyethyl)amino]-ethyl]-11-oxo-2-phenyl, dihydrochloride]",3.5 µg/mL,0.8 µg/mL,
